Data reported in paper PMC4618635 (Pharmacology Research & Perspectives, 2015).

How the values were obtained:
Format in all cases: cell-based
hERG potassium channel [1] = target: hERG potassium channel (Homo sapiens, UniProt Q12809, F656A); test: whole-cell patch clamp, CHO cells transiently expressing F656A hERG, high [K+]
hERG potassium channel [2] = target: hERG potassium channel (Homo sapiens, UniProt Q12809, Y652A); test: whole-cell patch clamp, CHO cells transiently expressing Y652A hERG
hERG potassium channel [3] = target: hERG potassium channel (Homo sapiens, UniProt Q12809); test: whole-cell patch clamp, HEK cells stably expressing hERG, tail current block
hERG potassium channel (Homo sapiens, UniProt Q12809), sequence (Q12809 whole entry): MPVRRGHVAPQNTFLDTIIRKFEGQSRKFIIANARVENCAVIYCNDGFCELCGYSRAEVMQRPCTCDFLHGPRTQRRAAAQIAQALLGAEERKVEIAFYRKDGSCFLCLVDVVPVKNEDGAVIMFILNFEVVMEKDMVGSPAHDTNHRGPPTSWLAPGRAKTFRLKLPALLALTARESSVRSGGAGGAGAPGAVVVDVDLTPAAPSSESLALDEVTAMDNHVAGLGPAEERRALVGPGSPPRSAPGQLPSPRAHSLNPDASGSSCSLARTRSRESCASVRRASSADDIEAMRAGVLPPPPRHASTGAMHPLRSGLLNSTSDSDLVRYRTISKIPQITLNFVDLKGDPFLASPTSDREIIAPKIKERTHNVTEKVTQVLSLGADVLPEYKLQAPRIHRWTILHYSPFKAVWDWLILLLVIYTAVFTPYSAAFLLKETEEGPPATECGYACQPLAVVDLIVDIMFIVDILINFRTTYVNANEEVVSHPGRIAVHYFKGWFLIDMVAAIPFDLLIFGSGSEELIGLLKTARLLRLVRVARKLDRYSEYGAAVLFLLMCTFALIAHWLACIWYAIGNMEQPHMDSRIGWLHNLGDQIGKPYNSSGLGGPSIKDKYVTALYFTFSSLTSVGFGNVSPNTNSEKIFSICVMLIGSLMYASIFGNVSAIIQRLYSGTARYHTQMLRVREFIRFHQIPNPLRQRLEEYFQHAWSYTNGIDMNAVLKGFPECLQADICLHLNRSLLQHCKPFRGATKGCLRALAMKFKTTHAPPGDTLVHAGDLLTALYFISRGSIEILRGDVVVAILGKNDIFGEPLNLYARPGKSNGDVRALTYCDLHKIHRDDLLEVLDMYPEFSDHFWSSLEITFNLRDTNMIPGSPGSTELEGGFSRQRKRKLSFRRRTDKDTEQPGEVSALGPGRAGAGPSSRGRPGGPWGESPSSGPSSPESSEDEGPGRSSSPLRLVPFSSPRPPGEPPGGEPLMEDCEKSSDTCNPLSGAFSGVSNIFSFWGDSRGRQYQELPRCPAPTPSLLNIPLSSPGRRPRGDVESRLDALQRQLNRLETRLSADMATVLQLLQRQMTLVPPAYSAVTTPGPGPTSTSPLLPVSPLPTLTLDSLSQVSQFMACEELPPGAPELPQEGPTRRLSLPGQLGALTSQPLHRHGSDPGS

hERG potassium channel (Homo sapiens, UniProt Q12809, Y652A), sequence (Q12809 whole entry Y652A): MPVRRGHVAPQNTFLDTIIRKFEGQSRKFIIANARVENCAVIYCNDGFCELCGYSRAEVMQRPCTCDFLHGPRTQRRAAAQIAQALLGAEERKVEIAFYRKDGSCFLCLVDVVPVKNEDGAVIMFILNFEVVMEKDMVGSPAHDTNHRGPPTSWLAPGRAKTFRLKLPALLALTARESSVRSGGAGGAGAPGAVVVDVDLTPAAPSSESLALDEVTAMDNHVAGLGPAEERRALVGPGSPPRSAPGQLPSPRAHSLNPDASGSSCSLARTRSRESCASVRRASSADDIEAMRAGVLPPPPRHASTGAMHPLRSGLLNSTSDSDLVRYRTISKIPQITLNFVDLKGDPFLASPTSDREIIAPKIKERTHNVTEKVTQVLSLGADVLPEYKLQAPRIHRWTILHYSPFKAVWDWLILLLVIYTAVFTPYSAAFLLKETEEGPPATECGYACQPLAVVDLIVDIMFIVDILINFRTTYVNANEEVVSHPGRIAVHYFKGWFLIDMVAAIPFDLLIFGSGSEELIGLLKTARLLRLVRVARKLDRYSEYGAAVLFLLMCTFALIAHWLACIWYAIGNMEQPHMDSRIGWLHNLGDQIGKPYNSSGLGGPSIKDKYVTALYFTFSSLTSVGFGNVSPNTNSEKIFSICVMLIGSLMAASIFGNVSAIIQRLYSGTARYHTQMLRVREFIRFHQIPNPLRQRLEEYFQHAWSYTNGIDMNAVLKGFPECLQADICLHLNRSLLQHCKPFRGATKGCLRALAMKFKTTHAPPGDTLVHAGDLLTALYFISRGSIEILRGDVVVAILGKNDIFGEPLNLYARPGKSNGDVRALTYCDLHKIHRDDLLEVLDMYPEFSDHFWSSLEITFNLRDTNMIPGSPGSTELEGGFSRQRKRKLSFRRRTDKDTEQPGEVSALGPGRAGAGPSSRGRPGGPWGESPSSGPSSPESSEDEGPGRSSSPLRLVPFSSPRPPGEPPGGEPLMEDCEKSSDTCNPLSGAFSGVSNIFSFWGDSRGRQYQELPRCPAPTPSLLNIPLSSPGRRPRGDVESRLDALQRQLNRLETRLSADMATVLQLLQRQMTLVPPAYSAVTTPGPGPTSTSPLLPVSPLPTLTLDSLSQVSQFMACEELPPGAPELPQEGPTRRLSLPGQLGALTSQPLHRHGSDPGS
hERG potassium channel (Homo sapiens, UniProt Q12809, F656A), sequence (Q12809 whole entry F656A): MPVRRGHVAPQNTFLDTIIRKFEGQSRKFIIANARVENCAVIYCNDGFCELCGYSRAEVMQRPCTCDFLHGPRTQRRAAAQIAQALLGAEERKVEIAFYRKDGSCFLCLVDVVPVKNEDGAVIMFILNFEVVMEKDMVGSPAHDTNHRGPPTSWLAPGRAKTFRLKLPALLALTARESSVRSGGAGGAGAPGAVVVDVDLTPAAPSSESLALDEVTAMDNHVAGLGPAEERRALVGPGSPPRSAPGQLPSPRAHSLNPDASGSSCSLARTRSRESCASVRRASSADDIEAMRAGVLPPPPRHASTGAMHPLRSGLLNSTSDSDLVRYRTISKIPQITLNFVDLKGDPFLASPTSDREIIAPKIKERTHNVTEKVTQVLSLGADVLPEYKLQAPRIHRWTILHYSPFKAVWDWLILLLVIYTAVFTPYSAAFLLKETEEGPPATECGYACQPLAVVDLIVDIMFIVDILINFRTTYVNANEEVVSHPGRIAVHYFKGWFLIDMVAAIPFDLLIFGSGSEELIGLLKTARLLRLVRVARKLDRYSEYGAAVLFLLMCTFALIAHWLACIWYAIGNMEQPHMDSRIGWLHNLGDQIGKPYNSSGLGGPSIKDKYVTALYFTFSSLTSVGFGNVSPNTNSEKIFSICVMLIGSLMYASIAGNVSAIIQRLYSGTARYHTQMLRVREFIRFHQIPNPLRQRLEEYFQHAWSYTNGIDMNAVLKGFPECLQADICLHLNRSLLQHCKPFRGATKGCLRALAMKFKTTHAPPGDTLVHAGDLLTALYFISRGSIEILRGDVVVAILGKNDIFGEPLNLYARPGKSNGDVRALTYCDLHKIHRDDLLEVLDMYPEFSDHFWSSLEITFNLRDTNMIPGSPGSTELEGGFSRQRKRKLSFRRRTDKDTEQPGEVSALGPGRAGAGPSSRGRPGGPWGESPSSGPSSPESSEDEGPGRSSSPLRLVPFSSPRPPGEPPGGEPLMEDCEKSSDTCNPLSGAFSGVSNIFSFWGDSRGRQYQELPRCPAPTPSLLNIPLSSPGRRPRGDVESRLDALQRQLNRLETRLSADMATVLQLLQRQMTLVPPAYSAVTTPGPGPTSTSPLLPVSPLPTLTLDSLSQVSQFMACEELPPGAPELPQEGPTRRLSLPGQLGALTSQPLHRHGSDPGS

Question: With `Cc1cccc(C)c1OCC(C)N` (stereo not drawn) [mexiletine] as the molecule, how does the IC50 (hERG potassium channel [1]) read?
Answer: 111 ± 1.8 µM

Question: And the IC50 (hERG potassium channel [2])?
Answer: 41.6 ± 6.6 µM

Question: And the IC50 (hERG potassium channel [3])?
Answer: 3.7 ± 0.7 µM
